From ChEMBL document CHEMBL1671711, “Serum and cerebrospinal fluid levels of colistin in pediatric patients” (Antimicrob Agents Chemother, 2010)

Columns and labels:
Klebsiella pneumoniae = assay: Antimicrobial activity against Klebsiella pneumoniae; format: functional, organism-based
[1] = system: Stenotrophomonas maltophilia; assay: Antimicrobial activity against Stenotrophomonas maltophilia; format: functional, organism-based
Acinetobacter baumannii = assay: Antimicrobial activity against Acinetobacter baumannii; format: functional

Measured: MIC

COLISTIN
< 0.5 µg/mL: Klebsiella pneumoniae | [1] | Acinetobacter baumannii
